Ten compounds from US4551472A, “Unsymmetrical bis-carbamate compounds” (priority 1984, dated 1985) can be followed below.

One data set has as its system Corn. Description: Phytotoxicity Test, corn. The note with it: 2500 ppm spray, ten days.
The test system of a further data set is Tom. Put plainly: Phytotoxicity Test, tomato. Conditions: 2500 ppm spray, ten days.
A further data set has as its system Cotton. Description: Phytotoxicity Test, cotton. Conditions: 2500 ppm spray, ten days.
For the next data set, the system named is Bean. Description: Phytotoxicity Test, bean. The note with it: 2500 ppm spray, ten days.
Data set [1] concerns root-knot nematode, Meloidogyne incognita var. acrita. Put plainly: Nematocide Test. Further: key: 1: severe galling, equal to untreated plants; 2: moderate galling; 3: light galling; 4: very light galling; 5: no galling, perfect control. In kind it is in vivo. Conditions: 3.33 m.g. per jar; cucumber, approximately 3 weeks. The protocol: The test organism used was the infective migratory larvae of the root-knot nematode, Meloidogyne incognita var. acrita, reared in the greenhouse on roots of cucumber plants. Infected plants were removed from the culture, and the roots are chopped very finely. A small amount of this inoculum was added to a pint jar containing approximately 180 cc. of soil. The jars were capped and incubated for one week at room temperature. During this period eggs of the nematode were hatched, and the larval forms migrated into the soil.
Ten ml. of the test formulation were added to each of the two jars for each dosage tested. Following the addition of chemical, the jars were capped, and the contents thoroughly mixed on a ball mill for 5 minutes.
The test compounds were formulated by a standard procedure of solution in acetone addition of an emulsifier, and dilution with water. Primary screening tests were conducted at 3.33 m.g. of the test compound per jar.
The jars were left capped at room temperature for a period of 48 hours, and the contents then transferred to 3 inch pots. Subsequently, the pots were seeded to cucumber as an indicator crop and placed in the greenhouse where they were cared for in the normal fashion for approximately 3 weeks.
The cucumber plants were then taken from the pots, the soil removed from the roots; and the amount of galling visually rated.
In the test for activity against nematodes (nem) activity was rated as follows: […]

The next data set has as its system Soy. Put plainly: Phytotoxicity Test, soy. Conditions: 2500 ppm spray, ten days.

Description for Bean: (§1) Experiments were also conducted to determine the phytotoxicity of representative compounds with respect to healthy fresh plants. […] The test plants were sprayed in accordance with the procedure described above for the Mite Foliage Spray Test so as to deliver approximately 100 milliliters of test solution to the leaves of each plant tested. The sprayed plants and controls were set aside for approximately one hour to allow the foliage to dry and were then placed in the greenhouse. After ten days the plants were visually inspected to determine the extent of foliage injury. A rating of 1 indicates no perceptible injury; 5 indicates the plant was dead and ratings of 2, 3 and 4 indicate intermediate degrees of injury based upon the number and extent to which leaves were injured.
Description for Cotton: as §1
Description for Tom: as §1

As for `CSC(C)=NOC(=O)N(C)SN(C)C(=O)Oc1cccc(N(C)C)c1` [XX, N-[1-Methylthioacetaldehyde O-(N-methylcarbamoyl)oxime]N-[3-(N',N'-dimethylamino)phenyl-(N-methylcarbamoyloxy)]sulfide], the “Phytotoxicity: Corn” value with Corn amounted to 1. For the same compound, the “Phytotoxicity: Tom” value with Tom came to 1. In the data set on Cotton, the “Phytotoxicity: Cotton” value stood at 2. Besides, the “Phytotoxicity: Bean” value in the data set on Bean was 1. Further, the “Biological Activity: Nem (nematode, galling rating)” value (“Biological Activity: Nem” below) in data set [1] was 4. Further, the “Phytotoxicity: Soy” value in the data set on Soy was 2.

For the compound `CCCCCCCCCCCCc1ccc(OC(=O)N(C)SN(C)C(=O)ON=C(C)SC)cc1` [XXX], the “Phytotoxicity: Corn” value with Corn was 1. Further, the “Phytotoxicity: Tom” value in the data set with Tom is recorded as 1. Also, the “Phytotoxicity: Cotton” value in the data set with Cotton is recorded as 2. Further, the “Phytotoxicity: Bean” value in the data set with Bean was 1. Also, in data set [1], the “Biological Activity: Nem” value was 4. The “Phytotoxicity: Soy” value in the data set on Soy was found to be 1.

As to `C#CCOC(=O)N(C)SN(C)C(=O)Oc1ccc(C)c(C)c1` [XXVII], the “Phytotoxicity: Corn” value in the data set on Corn was determined as 1. Further, the “Phytotoxicity: Tom” value with Tom is listed as 1. Moreover, in the data set with Cotton, the “Phytotoxicity: Cotton” value was determined as 2. Also, the “Phytotoxicity: Bean” value with Bean was found to be 1. The “Biological Activity: Nem” value in data set [1] is 5. For the same compound, in the data set with Soy, the “Phytotoxicity: Soy” value turned out to be 2.

As to `CC(C)c1ccc(OC(=O)N(C)SN(C)C(=O)ON=C2CSCCS2)cc1` [XXV, N-[2-O-(N-methylcarbamoyl)oximino-1,4-dithiane]N-[4-isopropyl-(N-methylcarbamoyloxy)benzene]sulfide], the “Phytotoxicity: Corn” value in the data set on Corn is 1. Further, the “Phytotoxicity: Tom” value with Tom came out at 1. The “Phytotoxicity: Cotton” value in the data set on Cotton came to 3. For the same compound, the “Phytotoxicity: Bean” value with Bean amounted to 1. Moreover, in the data set with Soy, the “Phytotoxicity: Soy” value is given as 1.

As to `CSC(C)=NOC(=O)N(C)SN(C)C(=O)Oc1ccccc1C1OCCO1` [XXXVII], the “Phytotoxicity: Corn” value in the data set on Corn is recorded as 1. The “Phytotoxicity: Tom” value in the data set with Tom is recorded as 1. In addition, the “Phytotoxicity: Cotton” value in the data set on Cotton is reported as 2. In addition, the “Phytotoxicity: Bean” value in the data set on Bean was 2. Also, in data set [1], the “Biological Activity: Nem” value was determined as 4. In the data set with Soy, the “Phytotoxicity: Soy” value is 2.

`CSC(C)=NOC(=O)N(C)SN(C)C(=O)Oc1ccc(C(C)(C)C)cc1Cl` [XXIX]: in the data set with Corn, the “Phytotoxicity: Corn” value was determined as 1. In the data set on Tom, the “Phytotoxicity: Tom” value was determined as 1. In addition, in the data set with Cotton, the “Phytotoxicity: Cotton” value is reported as 1. In addition, in the data set on Bean, the “Phytotoxicity: Bean” value is listed as 1. Moreover, the “Biological Activity: Nem” value in data set [1] came out at 5. In the data set with Soy, the “Phytotoxicity: Soy” value was 1.

Turning to `CCC(C)c1cc([N+](=O)[O-])cc([N+](=O)[O-])c1OC(=O)N(C)SN(C)C(=O)ON=C(C)SC` (stereo not shown) [XIX, N-[1-Methylthioacetaldehyde O-(N-methylcarbamoyl)oxime]N-[2,4-dinitro-6-sec-butylphenyl-(N-methylcarbamoyloxy)]sulfide], the “Phytotoxicity: Corn” value in the data set with Corn was 2. For the same compound, the “Phytotoxicity: Tom” value with Tom worked out at 2. Besides, the “Phytotoxicity: Cotton” value with Cotton is 2. Also, in the data set on Bean, the “Phytotoxicity: Bean” value was 1. In data set [1], the “Biological Activity: Nem” value was found to be 1. The “Phytotoxicity: Soy” value in the data set with Soy was determined as 2.

On to `C=CCc1ccc(OC(=O)N(C)SN(C)C(=O)ON=C(C)SC)c(OC)c1` [XXXIII], for which, in the data set with Corn, the “Phytotoxicity: Corn” value stood at 1. In the data set on Tom, the “Phytotoxicity: Tom” value was determined as 1. Further, the “Phytotoxicity: Cotton” value in the data set with Cotton came out at 3. In addition, the “Phytotoxicity: Bean” value in the data set on Bean amounted to 1. For the same compound, the “Biological Activity: Nem” value in data set [1] is on record as 5. Further, in the data set with Soy, the “Phytotoxicity: Soy” value stood at 1.

Regarding `C#CCOC(=O)N(C)SN(C)C(=O)Oc1cccc2ccccc12` [XXVI], in the data set on Corn, the “Phytotoxicity: Corn” value was determined as 1. The “Phytotoxicity: Tom” value in the data set with Tom is 1. Further, in the data set with Cotton, the “Phytotoxicity: Cotton” value was 1. The “Phytotoxicity: Bean” value in the data set on Bean is 1. The “Biological Activity: Nem” value in data set [1] is 4. Further, the “Phytotoxicity: Soy” value in the data set with Soy was determined as 2.

As to `CSC(C)=NOC(=O)N(C)SN(C)C(=O)Oc1cccc(Oc2ccccc2)c1` [XXXV], the “Phytotoxicity: Corn” value with Corn is on record as 1. For the same compound, the “Phytotoxicity: Tom” value in the data set with Tom is given as 1. Further, the “Phytotoxicity: Cotton” value in the data set on Cotton is 1. Besides, the “Phytotoxicity: Bean” value in the data set on Bean amounted to 1. In the data set on Soy, the “Phytotoxicity: Soy” value worked out at 1.
